Assay results from patent US12365687B2 (Hoffmann-La Roche Inc., priority 2021, dated 2025).

Columns and labels:
[1] = target: human GABAA α5β2γ1 receptor (Homo sapiens (Human), UniProt P31644+Q8N1C3); experiment: Radioligand binding assay for γ1-containing GABAA subtypes, [3H]RO7239181 competition (α5β2γ1)
[2] = target: human GABAA α2β2γ1 receptor (Homo sapiens (Human), UniProt P47869+Q8N1C3); experiment: Radioligand binding assay for γ1-containing GABAA subtypes, [3H]RO7239181 competition (α2β2γ1)
[3] = target: human GABAA α1β3γ2 receptor (Homo sapiens (Human), UniProt P14867+P18507); experiment: Radioligand binding assay for γ2-containing GABAA subtypes, [3H]Flumazenil competition (α1β3γ2); conditions: for γ2/γ1 Selectivity Ratio: Ki α1β3γ2 (nM)/Ki α2β2γ1 (nM); for LogSel: Log[Ki α1β3γ2 (nM)/Ki α2β2γ1 (nM)]
[4] = target: α2β2γ1 GABAA receptor subtype (Homo sapiens (Human), UniProt P47869+Q8N1C3); experiment: Two-electrode voltage clamp electrophysiology in Xenopus oocytes expressing GABAA receptors (modulation of GABA EC20 current); assay type: cell-based; conditions: for Efficacy (GABA)%: % modulation of GABA EC20 = 100*(Fold increase-1), α2β2γ1 oocytes, compound at approx. 30-fold Ki; for Fold increase h-GABA-A α2β2γ1 oocyte @ 30-fold Ki: Xenopus oocytes expressing α2β2γ1, compound at approx. 30-fold its Ki α2β2γ1, GABA EC20 current
In short: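 Each concentration was tested on ≥3 oocytes held at −80 mV at room temperature, recorded 3-5 days post-injection. A control and a test response to EC20 GABA (1.5 min each) were superimposed and their point-by-point ratio taken. Peak ratio reported as % modulation of GABA EC20 = 100×(fold increase−1).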

[5] = Ki h-GABAA α2β2γ1, [3H]RO7239181 competition binding, human GABAA α2β2γ1
[6] = Ki h-GABAA α2β2γ1, displacement of [3H]RO7239181, membranes of HEK293F cells expressing human receptors, means of two determinations

SMILES	Ki [1] [nM]	Ki [2, 5] [nM]	Ki [2, 6] [nM]	Ki [3] [nM]	γ2/γ1 Selectivity Ratio [3]	LogSel [3]	Efficacy (GABA)% [4] [%]	Fold increase h-GABA-A α2β2γ1 oocyte @ 30-fold Ki [4]
C[C@@H]1N=C(c2c(F)cccc2F)c2c(ccc(Cl)c2Cl)-n2cc(C(=O)N3CC(O)C3)nc21 [Example 68, (3-hydroxyazetidin-1-yl)-[(4S)-7,8-dichloro-6-(2,6-difluorophenyl)-4-methyl-4H-imidazo[1,2-a][1,4]benzodiazepin-2-yl]methanone]	1.48	7.2	7.2	318	44.0	1.64	107	2.07
C[C@@H]1N=C(c2ncccc2F)c2c(ccc(C(F)(F)F)c2Cl)-n2c(CO)cnc21 [Example 151, [(4S)-7-chloro-6-(3-fluoro-2-pyridyl)-4-methyl-8-(trifluoromethyl)-4H-imidazo[1,2-a][1,4]benzodiazepin-1-yl]methanol]	24	92.8	92.8	13200	142.0	2.15	253	3.53
CNC(=O)c1nc2n(n1)-c1ccc(Cl)c(Cl)c1C(c1c(F)cccc1F)=NC2 [Example 6, 7,8-dichloro-6-(2,6-difluorophenyl)-N-methyl-4H-[1,2,4]triazolo[1,5-a][1,4]benzodiazepine-2-carboxamide]	0.75	5.5	5.5	1440	260.9	2.42	101	2.01
C[C@@H]1N=C(c2ncccc2F)c2c(ccc(Cl)c2Cl)-n2nc(C(=O)NC3CC3)nc21 [Example 88, (4S)-7,8-dichloro-N-cyclopropyl-6-(3-fluoro-2-pyridyl)-4-methyl-4H-[1,2,4]triazolo[1,5-a][1,4]benzodiazepine-2-carboxamide]	10.1	90.6	90.6	2820	31.2	1.49	162	2.62
C[C@@H]1N=C(c2ncccc2F)c2c(ccc(C(F)(F)F)c2Cl)-n2cc(C(=O)NCCO)nc21 [Example 141, (4S)-7-chloro-6-(3-fluoro-2-pyridyl)-N-(2-hydroxyethyl)-4-methyl-8-(trifluoromethyl)-4H-imidazo[1,2-a][1,4]benzodiazepine-2-carboxamide]	12.4	55.9	55.9	12200	218.4	2.34	112	2.12
C[C@@H]1N=C(c2c(F)cccc2F)c2c(ccc(Cl)c2Cl)-n2nc(S(C)(=O)=O)nc21 [Example 82, (4S)-7,8-dichloro-6-(2,6-difluorophenyl)-4-methyl-2-methylsulfonyl-4H-[1,2,4]triazolo[1,5-a][1,4]benzodiazepine]	3.55	19.8	19.8	2130	107.3	2.03	75	1.75
C[C@@H]1N=C(c2ncccc2F)c2c(ccc(C(F)(F)F)c2Cl)-n2nc(NC(=O)NC3COC3)nc21 [Example 146, 1-[(4S)-7-chloro-6-(3-fluoro-2-pyridyl)-4-methyl-8-(trifluoromethyl)-4H-[1,2,4]triazolo[1,5-a][1,4]benzodiazepin-2-yl]-3-(oxetan-3-yl)urea]	7.2	36.1	36.1	13100	364.3	2.56	111	2.11
